The values below come from publication PMC8510595, “Vanillin enones as selective inhibitors of the cancer associated carbonic anhydrase isoforms IX and XII. The out of the active site pocket for the design of selective inhibitors?” (Journal of Enzyme Inhibition and Medicinal Chemistry, 2021).

Common to all, as to assay: stopped-flow CO2 hydration assay
Holding throughout (assay type): biochemical

One assay has as its target T1, hCA I (Homo sapiens, UniProt P00915).
T1 construct: gene CA1; recombinant, obtained in the authors' laboratory; cytosolic
The conditions noted are these: read-out: Ki (μM)^b / hCA I.

A further assay concerns the target T2, hCA XII (Homo sapiens, UniProt O43570).
T2 construct: gene CA12; recombinant, obtained in the authors' laboratory; transmembrane isoform
The following applies: read-out: Ki (μM)^b / hCA XII.

For another assay, the target named is T3, hCA II (Homo sapiens, UniProt P00918).
T3 construct: gene CA2; recombinant, obtained in the authors' laboratory; cytosolic

A further assay concerns the target T4, hCA IX (Homo sapiens, UniProt Q16790).
T4 construct: gene CA9; recombinant, obtained in the authors' laboratory; transmembrane isoform
The conditions noted are these: read-out: Ki (μM)^b / hCA IX.

Structures are written as SMILES. Like-named read-outs stand apart in the source and are kept apart here.

T1 sequence (P00915 2-261): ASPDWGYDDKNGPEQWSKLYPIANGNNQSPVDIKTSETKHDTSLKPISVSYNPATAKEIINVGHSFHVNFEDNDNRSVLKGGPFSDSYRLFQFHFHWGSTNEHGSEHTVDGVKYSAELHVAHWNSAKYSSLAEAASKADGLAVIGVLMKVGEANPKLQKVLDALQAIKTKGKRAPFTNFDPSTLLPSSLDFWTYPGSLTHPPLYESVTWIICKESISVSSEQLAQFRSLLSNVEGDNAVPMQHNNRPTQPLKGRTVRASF
T2 sequence (O43570 25-354 limits assumed): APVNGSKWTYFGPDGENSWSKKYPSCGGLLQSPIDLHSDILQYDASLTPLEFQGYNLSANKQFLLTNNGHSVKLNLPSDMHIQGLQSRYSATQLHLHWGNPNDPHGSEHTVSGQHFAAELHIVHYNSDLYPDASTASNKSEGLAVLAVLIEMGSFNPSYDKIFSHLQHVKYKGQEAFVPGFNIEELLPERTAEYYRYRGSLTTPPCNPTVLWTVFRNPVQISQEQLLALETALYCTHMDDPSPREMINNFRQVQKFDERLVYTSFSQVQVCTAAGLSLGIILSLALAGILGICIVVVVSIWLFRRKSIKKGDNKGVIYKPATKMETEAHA

`COc1cc(/C=C/C(=O)C[C@@H]2O[C@H](CO)[C@@H](O)[C@H](O)[C@H]2O)ccc1O` [compound 1, 1-(β-D-glucopyranosyl)-4–(4-hydroxy-3-methoxyphenyl)but-3-en-2-one]: the Ki on hCA I was 71.6 µM; at hCA XII, 4.8 µM; on hCA II (read-out: Ki (μM)^b / hCA II), greater than 100 µM; at hCA IX it was 30.8 µM.

On to `COc1cc(/C=C/C(=O)C[C@@H]2O[C@H](CO)[C@H](O)[C@H](O)[C@H]2O)ccc1O` [compound 2, 1-(β-D-galactopyranosyl)-4–(4-hydroxy-3-methoxyphenyl)but-3-en-2-one], for which the Ki is 80.5 µM on hCA I, 2.5 µM at hCA XII, greater than 100 µM on hCA II (read-out: Ki (μM)^b / hCA II) and 20.8 µM on hCA IX.

Regarding `CCC(=O)/C=C/c1ccc(O)c(OC)c1` [compound 4, (E)-1–(4-Hydroxy-3-methoxyphenyl)pent-1-en-3-one], the Ki on hCA I is greater than 100 µM; at hCA XII, 2.5 µM; at hCA II (read-out: Ki (μM)^b / hCA I), greater than 100 µM; on hCA IX, 32 µM.

On to `COc1cc(/C=C/C(=O)CC(C)C)ccc1O` [compound 5, (E)-1–(4-Hydroxy-3-methoxyphenyl)-5-methylhex-1-en-3-one], for which the Ki is greater than 100 µM on hCA I, 1.7 µM at hCA XII, greater than 100 µM on hCA II (read-out: Ki (μM)^b / hCA I) and 26.3 µM on hCA IX.

As for `COc1cc(/C=C/C(=O)c2ccccc2)ccc1O` [compound 6, (E)-3–(4-Hydroxy-3-methoxyphenyl)-1-phenylprop-2-en-1-one], the Ki at hCA I came to 76.3 µM; at hCA XII it was 0.63 µM; on hCA II (read-out: Ki (μM)^b / hCA II), 96.4 µM; at hCA IX, 29.1 µM.

As to `COc1cc(/C=C/C(=O)c2ccc(Br)cc2)ccc1O` [compound 7, (E)-1–(4-Bromophenyl)-3–(4-hydroxy-3-methoxyphenyl)prop-2-en-1-one], the Ki is 92.6 µM on hCA I, 6.4 µM on hCA XII, 82 µM on hCA II (read-out: Ki (μM)^b / hCA II) and greater than 100 µM on hCA IX.
